According to patent US9199943B2, “2-(poly-substituted aryl)-6-amino-5-halo-4-pyrimidinecarboxylic acids and their use as herbicides” (Dow AgroSciences, LLC., priority 2006, dated 2015):

What was measured:
[1] = tested on: HELAN = sunflower (Helainthus annuus); assay: General postemergence herbicidal activity, sunflower; format: in vivo; conditions: post-emergent, 140 g ai/ha, visual score after 14 days (0 no injury, 100 complete kill); for pest or weed control at 140 g/ha: post-emergence, 336 h
Description: (§1) Seeds or nutlets of the desired test plant species were planted in Sun Gro MetroMix® 306 planting mixture, which typically has a pH of 6.0 to 6.8 and an organic matter content of about 30 percent, in plastic pots with a surface area of 64 square centimeters. When required to ensure good germination and healthy plants, a fungicide treatment and/or other chemical or physical treatment was applied. The plants were grown for 7-21 days in a greenhouse with an approximate 15 hour photoperiod which was maintained at about 23-29° C. during the day and 22-28° C. during the night. Nutrients and water were added on a regular basis and supplemental lighting was provided with overhead metal halide 1000-Watt lamps as necessary. The plants were employed for testing when they reached the first or second true leaf stage.
(§2) A weighed amount, determined by the highest rate to be tested, of each test compound was placed in a 25 mL glass vial and was dissolved in 4 mL of a 97:3 v/v (volume/volume) mixture of acetone and dimethyl sulfoxide (DMSO) to obtain concentrated stock solutions. […] The concentrated stock solutions obtained were diluted with 20 mL of an aqueous mixture containing acetone, water, isopropyl alcohol, DMSO, Atplus 411F crop oil concentrate, and Triton X-155 surfactant in a 48.5:39:10:1.5:1.0:0.02 v/v ratio to obtain spray solutions containing the highest application rates. Additional application rates were obtained by serial dilution of 12 mL of the high rate solution into a solution containing 2 mL of 97:3 v/v (volume/volume) mixture of acetone and dimethyl sulfoxide (DMSO) and 10 mL of an aqueous mixture containing acetone, water, isopropyl alcohol, DMSO, Atplus 411F crop oil concentrate, and Triton X-155 surfactant in a 48.5:39:10:1.5:1.0:0.02 v/v ratio to obtain ½×, ¼×, ⅛× and 1/16× rates of the high rate. Compound requirements are based upon a 12 mL application volume at a rate of 187 L/ha. Formulated compounds were applied to the plant material with an overhead Mandel track sprayer equipped with a 8002E nozzles calibrated to deliver 187 L/ha over an application area of 0.503 square meters at a spray height of 18 inches (43 cm) above the average plant canopy height. Control plants were sprayed in the same manner with the solvent blank.
(§3) The treated plants and control plants were placed in a greenhouse as described above and watered by sub-irrigation to prevent wash-off of the test compounds. After 14 days, the condition of the test plants as compared with that of the untreated plants was determined visually and scored on a scale of 0 to 100 percent where 0 corresponds to no injury and 100 corresponds to complete kill.
(§4) By applying the well-accepted probit analysis as described by J. Berkson in Journal of the […], 48, 565 (1953) and by D. Finney in “Probit Analysis” Cambridge University Press (1952), the above data can be used to calculate GR50 and GR80 values, which are defined as growth reduction factors that correspond to the effective dose of herbicide required to kill or control 50 percent or 80 percent, respectively, of a target plant.

[2] = tested on: CHEAL = lambsquarter (Chenopodium album); assay: General postemergence herbicidal activity, lambsquarter; format: in vivo; conditions: post-emergent, 140 g ai/ha, visual score after 14 days (0 no injury, 100 complete kill); for pest or weed control at 140 g/ha: Chenopodium album, post-emergence, 336 h
Description: as §1, §2, §3, §4

[3] = tested on: ABUTH = velvetleaf (Abutilon theophrasti); assay: General postemergence herbicidal activity, velvetleaf; format: in vivo; conditions: post-emergent, 140 g ai/ha, visual score after 14 days (0 no injury, 100 complete kill); for pest or weed control at 140 g/ha: Abutilon theophrasti, post-emergence, 336 h
Description: as §1, §2, §3, §4

[4] = tested on: CHEAL = lambsquarter (Chenopodium album); assay: General preemergence herbicidal activity, lambsquarter; format: in vivo; conditions: pre-emergent, 140 g ai/ha, visual score after 20-22 days; for pest or weed control at 140 g/ha: Chenopodium album, pre-emergence, 480 h
From the text: (§5) Seeds of the desired test plant species were planted in a soil matrix prepared by mixing a loam soil (43 percent silt, 19 percent clay, and 38 percent sand, with a pH of about 8.1 and an organic matter content of about 1.5 percent) and sand in a 70 to 30 ratio. The soil matrix was contained in plastic pots with a surface area of 113 square centimeters. When required to ensure good germination and healthy plants, a fungicide treatment and/or other chemical or physical treatment was applied. A weighed amount, determined by the highest rate to be tested, of each test compound was placed in a 25 mL glass vial and was dissolved in 6 mL of a 97:3 v/v (volume/volume) mixture of acetone and DMSO to obtain concentrated stock solutions. […] The stock solutions obtained were diluted with 18 mL of a 0.1% v/v aqueous solution of Tween® 20 surfactant to obtain spray solutions containing the highest application rate. Additional application rates were obtained by serial dilution of 12 mL of the high rate solution into a solution containing 3 mL of 97:3 v/v mixture of acetone and DMSO and 9 mL of the 0.1% v/v aqueous solution of Tween® 20 surfactant to obtain 1⁄2×, 1⁄4×, 1⁄8× and 1/16× rates of the high rate. Compound requirements are based upon a 12 mL application volume at a rate of 187 L/ha. Formulated compounds were applied to the plant material with an overhead Mandel track sprayer equipped with a […] nozzles calibrated to deliver 187 L/ha over an application area of 0.503 square meters at a spray height of 18 inches (43 cm) above the soil surface. Control plants were sprayed in the same manner with the solvent blank. The treated pots and control pots were placed in a greenhouse maintained with an approximate 15 hour photoperiod and temperatures of about 23-29° C. during the day and 22-28° C. during the night. Nutrients and water were added on a regular basis and supplemental lighting was provided with overhead metal halide 1000-Watt lamps as necessary. The water was added by top-irrigation. After 20-22 days, the condition of the test plants that germinated and grew as compared with that of the untreated plants that emerged and grew was determined visually and scored on a scale of 0 to 100 percent where 0 corresponds to no injury and 100 corresponds to complete kill or no emergence.

[5] = tested on: HELAN = sunflower (Helianthus annuus); assay: General preemergence herbicidal activity, sunflower; format: in vivo; conditions: pre-emergent, 140 g ai/ha, visual score after 20-22 days; for pest or weed control at 140 g/ha: Helianthus annuus, pre-emergence, 480 h
From the text: as §5

[6] = tested on: ABUTH = velvetleaf (Abutilon theophrasti); assay: General preemergence herbicidal activity, velvetleaf; format: in vivo; conditions: pre-emergent, 140 g ai/ha, visual score after 20-22 days; for pest or weed control at 140 g/ha: Abutilon theophrasti, pre-emergence, 480 h
From the text: as §5

COC(=O)c1nc(-c2cc(OC)c(Cl)cc2F)nc(N)c1Cl [Compound 5, 6-Amino-5-chloro-2-(4-chloro-2-fluoro-5-methoxyphenyl)pyrimidine-4-carboxylic acid methyl ester]
pest or weed control at 140 g/ha [1]: 95% | pest or weed control at 140 g/ha [2]: 100% | pest or weed control at 140 g/ha [3]: 95%

COC(=O)c1nc(-c2ccc(Cl)c(C)c2F)nc(N)c1Cl [Compound 11, 6-Amino-5-chloro-2-(4-chloro-2-fluoro-3-methylphenyl)pyrimidine-4-carboxylic acid methyl ester]
pest or weed control at 140 g/ha [4]: 60% | melting point: 166 to 168 °C | pest or weed control at 140 g/ha [1]: 100% | pest or weed control at 140 g/ha [5]: 100% | pest or weed control at 140 g/ha [2]: 95% | pest or weed control at 140 g/ha [6]: 100% | pest or weed control at 140 g/ha [3]: 95%

COC(=O)c1nc(-c2ccc(Cl)c(OC)c2F)nc(N)c1F [Compound 12, 6-amino-2-(4-chloro-2-fluoro-3-methoxy-phenyl)-5-fluoro-pyrimidine-4-carboxylic acid methyl ester]
melting point: 200 to 202 °C | pest or weed control at 140 g/ha [1]: 100% | pest or weed control at 140 g/ha [2]: 95% | pest or weed control at 140 g/ha [3]: 85%

COC(=O)c1nc(-c2ccc(Cl)c(SC(F)(F)F)c2F)nc(N)c1Cl [Compound 14, 6-amino-5-chloro-2-(4-chloro-2-fluoro-3-trifluoro-methylthiophenyl)pyrimidine-4-carboxylic acid methyl ester]
melting point: 167 to 169 °C | pest or weed control at 140 g/ha [1]: 90% | pest or weed control at 140 g/ha [2]: 50% | pest or weed control at 140 g/ha [3]: 80%

COc1c(Cl)ccc(-c2nc(N)c(Cl)c(C(=O)O)n2)c1F [Compound 15, 6-amino-5-chloro-2-(4-chloro-2-fluoro-3-methoxyphenyl)-pyrimidine-4-carboxylic acid]
pest or weed control at 140 g/ha [4]: 100% | melting point: 172 to 173 °C | pest or weed control at 140 g/ha [1]: 100% | pest or weed control at 140 g/ha [5]: 100% | pest or weed control at 140 g/ha [2]: 100% | pest or weed control at 140 g/ha [6]: 100% | pest or weed control at 140 g/ha [3]: 100%

Cc1c(F)sc(-c2nc(N)c(Cl)c(C(=O)O)n2)c1Cl [Compound 16, 6-Amino-5-chloro-2-(4-chloro-2-fluoro-3-methylthiophenyl)pyrimidine-4-carboxylic acid]
melting point: 139 to 141 °C

COc1cc(-c2nc(N)c(Cl)c(C(=O)O)n2)c(F)cc1Cl [Compound 17, 6-Amino-5-chloro-2-(4-chloro-2-fluoro-5-methoxyphenyl)pyrimidine-4-10 carboxylic acid]
% Control CHEAL [4]: 95% | % Control HELAN [1]: 80% | % Control HELAN [5]: 0% | % Control CHEAL [2]: 100% | % Control ABUTH [6]: 100% | % Control ABUTH [3]: 50%

COc1c(Cl)ccc(-c2nc(N)c(Cl)c(C(=O)O)n2)c1Cl [Compound 18, 6-Amino-5-chloro-2-(2,4-dichloro-3-methoxyphenyl)pyrimidine-4-carboxylic acid]
pest or weed control at 140 g/ha [4]: 100% | pest or weed control at 140 g/ha [1]: 95% | pest or weed control at 140 g/ha [5]: 100% | pest or weed control at 140 g/ha [2]: 100% | pest or weed control at 140 g/ha [6]: 100% | pest or weed control at 140 g/ha [3]: 75%

Cc1c(Cl)ccc(-c2nc(N)c(Cl)c(C(=O)O)n2)c1F [Compound 20, 6-Amino-5-chloro-2-(4-chloro-2-fluoro-3-methylphenyl)pyrimidine-4-carboxylic acid]
melting point: 210 to 212 °C | pest or weed control at 140 g/ha [1]: 100% | pest or weed control at 140 g/ha [2]: 100% | pest or weed control at 140 g/ha [3]: 90%

Nc1nc(-c2ccc(Cl)c(OCC(F)F)c2F)nc(C(=O)O)c1Cl [Compound 21, 6-Amino-5-chloro-2-[4-chloro-3-(2,2-difluoroethoxy)-2-fluorophenyl]-pyrimidine-4-carboxylic acid]
pest or weed control at 140 g/ha [1]: 80% | pest or weed control at 140 g/ha [2]: 90% | pest or weed control at 140 g/ha [3]: 0%

Nc1nc(-c2ccc3c(c2F)OCO3)nc(C(=O)O)c1Cl [Compound 22, 6-Amino-5-chloro-2-(4-fluoro-benzo[1,3]-dioxol-5-yl)pyrimidine-4-carboxylic acid]
pest or weed control at 140 g/ha [1]: 90% | pest or weed control at 140 g/ha [2]: 95% | pest or weed control at 140 g/ha [3]: 80%

CN(C)c1c(Cl)ccc(-c2nc(N)c(Cl)c(C(=O)O)n2)c1F [Compound 23, 6-Amino-5-chloro-2-(4-chloro-3-dimethylamino-2-fluorophenyl)pyrimidine-4-carboxylic acid]
melting point: 181 to 183 °C | pest or weed control at 140 g/ha [1]: 95% | pest or weed control at 140 g/ha [2]: 100% | pest or weed control at 140 g/ha [3]: 95%

Nc1nc(-c2ccc(Cl)c(C(F)F)c2F)nc(C(=O)O)c1Cl [Compound 24, 6-Amino-5-chloro-2-(4-chloro-3-difluoromethyl-2-fluorophenyl)pyrimidine-4-carboxylic acid]
melting point: 166 to 168 °C | pest or weed control at 140 g/ha [1]: 90% | pest or weed control at 140 g/ha [2]: 95% | pest or weed control at 140 g/ha [3]: 80%

COc1c(Cl)ccc(-c2nc(N)c(Br)c(C(=O)O)n2)c1F [Compound 25, 6-Amino-5-bromo-2-(4-chloro-2-fluoro-3-methoxyphenyl)pyrimidine-4-carboxylic acid]
melting point: 173 to 175 °C | pest or weed control at 140 g/ha [1]: 100% | pest or weed control at 140 g/ha [2]: 100% | pest or weed control at 140 g/ha [3]: 95%
